Results taken from patent US8809010B2, “Method for prophylactic treatment of alzheimer's disease using inhibitors of glutaminyl cyclase and glutamate cyclases” (Probiodrug AG, priority 2003, dated 2014).
Where two headings read alike, the source gives them in different places. Bridge positions count the residues as written; N and C are the ends. Ends that are not written are not given here. Peptide text beside a SMILES is read from it. Gln(NMe) = glutamine with N-methylated side-chain amide

Experiments:
[1] = test system: QC in porcine pituitary homogenate; test: Formation of [pGlu3]Aβ3-11a in porcine pituitary homogenate, MALDI-TOF; type: biochemical
Protocol: (§1) Matrix-assisted laser desorption/ionization mass spectrometry was carried out using the Hewlett-Packard G2025 LD-TOF System with a linear time of flight analyzer. […] Samples (5 μl) were mixed with equal volumes of the matrix solution. For matrix solution we used DHAP/DAHC, prepared by solving 30 mg 2′,6′-dihydroxyacetophenone (Aldrich) and 44 mg diammonium hydrogen citrate (Fluka) in 1 ml acetonitrile/0.1% TFA in water (1/1, v/v). A small volume (≈1 μl) of the matrix-analyte-mixture was transferred to a probe tip and immediately evaporated in a vacuum chamber (Hewlett-Packard G2024A sample prep accessory) to ensure rapid and homogeneous sample crystallization.

human QC [2] = target: T1, human QC (Homo sapiens, UniProt Q16769); test: Enzyme inactivation/reactivation procedures; type: biochemical; conditions: for inactivation of human QC: extensive dialysis against 5 mM chelator
T1 construct: The cDNA of the mature QC starting with codon 38 was fused in frame with the plasmid encoded 6× histidine tag; 6xHis; made in house; host or cells: Pichia pastoris X33 (pPICZαB, secreted); also E. coli M15 (pQE-31)
T1 sequence (Q16769 29-361): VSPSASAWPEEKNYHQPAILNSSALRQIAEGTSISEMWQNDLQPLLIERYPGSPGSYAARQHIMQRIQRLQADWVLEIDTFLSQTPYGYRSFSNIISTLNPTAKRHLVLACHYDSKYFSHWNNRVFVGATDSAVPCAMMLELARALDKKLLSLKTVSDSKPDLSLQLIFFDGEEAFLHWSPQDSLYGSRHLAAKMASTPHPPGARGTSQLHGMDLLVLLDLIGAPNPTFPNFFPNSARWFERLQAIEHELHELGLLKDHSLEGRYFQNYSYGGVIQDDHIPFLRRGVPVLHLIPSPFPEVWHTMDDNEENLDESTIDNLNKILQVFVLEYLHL

mammalian QC = mammalian QC (Bos taurus, UniProt Q28120); conditions: cited from earlier work
Chain of mammalian QC (Q28120 29-361): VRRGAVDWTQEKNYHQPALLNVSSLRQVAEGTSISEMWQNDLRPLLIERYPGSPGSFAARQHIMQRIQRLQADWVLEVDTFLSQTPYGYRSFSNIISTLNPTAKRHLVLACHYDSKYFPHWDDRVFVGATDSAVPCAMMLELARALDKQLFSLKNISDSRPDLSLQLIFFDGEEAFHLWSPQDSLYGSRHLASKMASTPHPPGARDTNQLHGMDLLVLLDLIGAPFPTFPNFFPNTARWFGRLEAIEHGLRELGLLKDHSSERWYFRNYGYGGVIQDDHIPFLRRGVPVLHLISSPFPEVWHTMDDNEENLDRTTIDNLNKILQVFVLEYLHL

human QC [3] = target: T1, human QC; conditions: cited from earlier work
human QC [4] = target: T1, human QC; test: QC inhibitor assay (fluorometric, H-Gln-AMC / H-Gln-βNA, pyroglutamyl aminopeptidase coupled); type: biochemical
human QC [5] = target: T1, human QC; test: Continuous spectrophotometric QC assay (glutamate dehydrogenase coupled), substrate kinetics; type: biochemical; conditions: for Ki* (mM): for substrate inhibition;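 for all read-outs here: initial rates read on a microplate reader at 30 °C, with enzyme activity quantified against an ammonia calibration curve under the same assay conditions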
Protocol: The initial velocities were evaluated and the enzymatic activity was determined from a standard curve of ammonia under assay conditions. All samples were measured at 30° C., using either the [sequence]luor Plus or the Sunrise (both from TECAN) reader for microplates. Kinetic data was evaluated using GraFit software.

human QC [6] = target: T1, human QC; test: Qualitative substrate conversion (MALDI-TOF / fluorometric); type: biochemical; parameters: key to substrate conversion, determined qualitatively: *: determined qualitatively by MALDI-TOF experiments; conditions: for substrate conversion, determined qualitatively: Human QC, MALDI-TOF
Protocol: as §1
In order to further investigate the specificity and selectivity of the QCs, peptides were synthesized comprising either a modified N-terminal glutaminyl residue or a modified amino acid in the second position. […] Due to the cyclization of the glutaminyl residue or its analog, respectively, a mass difference of the substrate and the product of catalysis is detected. In cases of ammonia liberation of one mole per mole of substrate, the conversion was also analyzed quantitatively using the spectrophotometric assay.

human QC [7] = target: T1, human QC; test: Long-term Glu1-cyclization of Aβ-derived peptides by recombinant human QC, MALDI-TOF; type: biochemical; conditions: for glutamate-containing peptide as QC-substrate: pH 5.2 and 6.5
Protocol: For long-term testing of Glu^1-cyclization, Aβ-derived peptides were incubated in 100 μl 0.1 M sodium acetate buffer, pH 5.2 or 0.1 M Bis-Tris buffer, pH 6.5 at 30° C. Peptides were applied in 0.5 mM [Aβ3-11a] or 0.15 mM [Aβ3-21a] concentrations, and 0.2 U QC was added all 24 hours. In case of Aβ3-21a, the assays contained 1% DMSO. At different times, samples were removed from the assay tube, peptides extracted using ZipTips (Millipore) according to the manufacturer's recommendations, mixed with matrix solution (1:1 v/v) and subsequently the mass spectra recorded. Negative controls did either contain no QC or heat deactivated enzyme.
The QC-catalyzed formation of [pGlu^3]Aβ3-11a and [pGlu^3]Aβ3-21a was investigated at pH 5.2 and 6.5, respectively. If the QC-inhibitor benzimidazole was added to the solution before starting the assay by addition of QC, substrate conversion resulting in [pGlu^3]Aβ3-11a or [pGlu^3]Aβ3-21a was suppressed (FIGS. 15E and F). If QC was boiled before addition, formation of the pGlu-peptides was negligible (FIGS. 15A and B).

[8] = Human QC, 0.05M Tris-HCl, pH 8.0
[9] = Human QC, 0.05M Tris-HCl, pH 8.0, 0.5 M KCl
[10] = recombinant human QC, absence of DMSO
[11] = recombinant human QC, buffer containing 1% DMSO

c1cnc2c(c1)ccc1cccnc12 [1,10-phenanthroline]
formation of [pGlu^3]Aβ3-11a from [Gln^3]Aβ1-11a, consecutive catalysis by DP IV and QC ([1]; pituitary homogenate with added DPIV from porcine kidney): not formed | formation of [pGlu^3]Aβ3-11a from [Gln^3]Aβ3-11a ([1]; porcine pituitary homogenate): inhibited | inactivation of human QC (human QC [2]): almost completely inactivated | inhibition of mammalian QC (mammalian QC): Inhibition | inhibition of human QC (human QC [3]): inhibited

NCCCn1ccnc1 [1-aminopropyl-imidazole]
inhibition of human QC (human QC [4]): one of the less effective compounds of this group

O=C(c1ccccc1)n1ccnc1 [1-benzoylimidazole]
inhibition of human QC (human QC [4]): loss of inhibitory quality

c1ccc(Cn2ccnc2)cc1 [1-benzylimidazole]
inhibition of human QC (human QC [4]): one of the most effective QC inhibitors

Cn1ccnc1 [1-methylimidazole]
inhibition of human QC (human QC [4]): improved binding to the active site

C=Cn1ccnc1 [1-vinylimidazole]
inhibition of human QC (human QC [4]): improved binding to the active site

Cc1nc2ccccc2[nH]1 [2-methyl-benzimidazole]
inhibition of human QC (human QC [4]): the inhibition constant drops about one order of magnitude

Cn1cncc1CCN [3-methyl-4-histamine]
inhibition of human QC (human QC [4]): considerable improvement of efficacy

O=C(O)CN(CCN(CC(=O)O)CC(=O)O)CC(=O)O [EDTA]
inhibition of mammalian QC (mammalian QC): did not inhibit

COc1ccc(NC(=S)NCCCn2ccnc2)cc1 [Example 11, 1-(3-(1H-imidazol-1-yl)propyl)-3-(4-methoxyphenyl)thiourea]
Ki (human QC [4]): 700 nM

CCOc1ccc(NC(=S)NCCCn2ccnc2)cc1 [Example 27, 1-(3-(1H-imidazol-1-yl)propyl)-3-(4-ethoxyphenyl)thiourea]
Ki (human QC [4]): 890 nM

S=C(NCCCn1ccnc1)NCc1ccc2c(c1)OCO2 [Example 47]
Ki (human QC [4]): 6100 nM

N#CN=C(NCCCn1ccnc1)NCc1ccc2c(c1)OCO2 [Example 81]
Ki (human QC [4]): 1530 nM

O=C(NCCCn1ccnc1)Nc1cc(F)cc2c1OCOC2 [Example 97]
Res. Act. (%) (human QC [4]; residual QC activity with inhibitor): 19.0%

Cc1cc(=O)oc2cc(NC(=O)[C@@H](N)CCC(N)=O)ccc12 [H-Gln-AMC]
kcat (human QC [5]; Human QC): 5.3 ± 0.1 s⁻¹

C[C@H](NC(=O)[C@H](C)NC(=O)[C@@H](N)CCC(N)=O)C(N)=O [H-Gln-Ala-Ala-NH2] (H-Gln-Ala-Ala-NH2)
kcat (human QC [5]; Human QC): 76.3 ± 0.7 s⁻¹

C[C@H](NC(=O)[C@@H](N)CCC(N)=O)C(N)=O [H-Gln-Ala-NH2] (H-Gln-Ala-NH2)
kcat (human QC [5]; Human QC): 40.1 ± 0.9 s⁻¹

C[C@H](NC(=O)[C@@H](N)CCC(N)=O)C(=O)O [H-Gln-Ala-OH] (H-Gln-Ala-OH)
kcat (human QC [5]; Human QC): 57.2 ± 0.4 s⁻¹ | Ki (mM) (human QC [5]; [8]): n.i. | kcat (human QC [5]; [8]): 54.4 ± 0.5 s⁻¹ | Ki (mM) (human QC [5]; [9]): n.i. | kcat (human QC [5]; [9]): 47.6 ± 0.6 s⁻¹ | Ki* (mM) (human QC [5]; Human QC): n.i.

NC(=O)CC[C@H](NC(=O)[C@@H](N)CCC(N)=O)C(=O)O [H-Gln-Gln-OH] (H-Gln-Gln-OH)
kcat (human QC [5]; Human QC): 20.7 ± 0.2 s⁻¹ | Ki* (mM) (human QC [5]; Human QC): n.i.

NC(=O)CC[C@H](N)C(=O)N[C@@H](CCC(=O)O)C(=O)O [H-Gln-Glu-OH] (H-Gln-Glu-OH)
kcat (human QC [5]; Human QC): 24.7 ± 0.2 s⁻¹ | Ki (mM) (human QC [5]; [8]): n.i. | kcat (human QC [5]; [8]): 21.4 ± 0.3 s⁻¹ | Ki (mM) (human QC [5]; [9]): n.i. | kcat (human QC [5]; [9]): 18.9 ± 0.5 s⁻¹ | Ki* (mM) (human QC [5]; Human QC): n.i.

CC(C)C[C@H](NC(=O)[C@H](CCCNC(=N)N)NC(=O)[C@H](CCCCNC(=O)[C@@H](N)CCC(N)=O)NC(=O)[C@@H](N)CCC(N)=O)C(=O)N[C@@H](C)C(N)=O [H-Gln-Lys(Gln)-Arg-Leu-Ala-NH2] (H-QK(Gln)RLA-NH2)
conversion by human QC (human QC [6]): converted

NC(=O)CC[C@H](N)C(N)=O [H-Gln-NH2]
kcat (human QC [5]; Human QC): 12.8 ± 0.5 s⁻¹ | Ki (mM) (human QC [5]; [8]): n.i. | kcat (human QC [5]; [8]): 12.8 ± 0.3 s⁻¹ | Ki (mM) (human QC [5]; [9]): n.i. | kcat (human QC [5]; [9]): 12.2 ± 0.1 s⁻¹ | Ki* (mM) (human QC [5]; Human QC): n.i. | conversion by human QC (human QC [6]): converted glutaminamide to products readily

NC(=O)CC[C@H](N)C(=O)O [H-Gln-OH]
KM (μM) (human QC [5]; Human QC): n.r. | kcat (s^−1) (human QC [5]; Human QC): n.r. | conversion by human QC (human QC [6]): no reactivity

CC(C)(C)OC(=O)C(N)CCC(N)=O (stereo not drawn) [H-Gln-OtBu]
kcat (human QC [5]; Human QC): 6.7 ± 0.2 s⁻¹ | Ki* (mM) (human QC [5]; Human QC): n.i.

NC(=O)CC[C@H](N)C(=O)N[C@@H](Cc1ccc(O)cc1)C(=O)O [H-Gln-Tyr-OH] (H-Gln-Tyr-OH)
kcat (human QC [5]; Human QC): 94 ± 1 s⁻¹ | Ki* (mM) (human QC [5]; Human QC): n.i.

CC(C)[C@H](NC(=O)[C@@H](N)CCC(N)=O)C(=O)O [H-Gln-Val-OH] (H-Gln-Val-OH)
kcat (human QC [5]; Human QC): 17.2 ± 0.1 s⁻¹ | Ki* (mM) (human QC [5]; Human QC): n.i.

COC(=O)CC[C@H](N)C(=O)N[C@@H](Cc1ccccc1)C(=O)N[C@@H](CCCCN)C(=O)N[C@@H](CCCNC(=N)N)C(=O)N[C@@H](CC(C)C)C(=O)N[C@@H](C)C(N)=O [H-Glu(OMe)-Phe-Lys-Arg-Leu-Ala-NH2] (H-E(OMe)FKRLA-NH2)
inhibition of human QC (human QC [4]): not inhibited

COC(=O)CC[C@H](N)C(=O)Nc1ccc2ccccc2c1 [H-Glu(OMe)-βNA]
conversion by human QC (human QC [6]): None of these compounds were converted

NCCc1c[nH]cn1 [L-Histamine]
inhibition of human QC (human QC [4]): about one order of magnitude smaller compared to its acetylated counterpart

O=S(=O)([O-])[O-].[Zn+2] [ZnSO4]
restoration of QC activity after inactivation (human QC [2]; 0.5 mM metal ion, 0.5 mM EDTA): Near-total restoration

NC(=O)CC[C@H](N)C(=O)N[C@@H](CCC(=O)O)C(=O)N1CCC[C@H]1C(N)=O [[Gln^1]-FPP] (H-Gln-Glu-Pro-NH2)
kcat (human QC [5]; Human QC): 69.6 ± 0.3 s⁻¹

NC(=O)CC[C@H](N)C(=O)N[C@@H](Cc1c[nH]cn1)C(=O)N1CCC[C@H]1C(N)=O [[Gln^1]-TRH] (H-Gln-His-Pro-NH2)
kcat (human QC [5]; Human QC): 82.8 ± 1.2 s⁻¹

c1ccc2[nH]cnc2c1 [benzimidazole]
formation of [pGlu^3]Aβ3-11a or [pGlu^3]Aβ3-21a in presence of inhibitor (human QC [7]; 5 mM inhibitor, pH 5.2 / 6.5): suppressed

O=C(O)c1cccc(C(=O)O)n1 [dipicolinic acid]
inactivation of human QC (human QC [2]): almost completely inactivated | inhibition of human QC (human QC [3]): inhibited

c1c[nH]cn1 [imidazole]
inhibition of human QC (human QC [3]): inhibited

EFRHDSGYE-NH2 [Aβ3-11a]
glutamate-containing peptide as QC-substrate (human QC [7]): can also serve as QC-substrates

EFRHDSGYEVHHQKLVFFA-NH2 [Aβ3-21a]
glutamate-containing peptide as QC-substrate (human QC [7]): can also serve as QC-substrates

H-EFKRLA-NH2 [H-Glu-Phe-Lys-Arg-Leu-Ala-NH2]
inhibition of human QC (human QC [4]): not inhibited

H-Gln(NMe)-Phe-Lys-Ala-Glu-NH2 ({Gln(NMe)}-FKAE-NH2)
inhibition of human QC (human QC [4]): not detected | conversion by human QC (human QC [6]): No substrate conversion was observed

H-Gln-cyclo(Nε-Lys-Arg-Pro-Ala-Gly-Phe) (H-QKRPAGF; lactam 2-C; SMILES C[C@@H]1NC(=O)[C@@H]2CCCN2C(=O)[C@H](CCCNC(=N)N)NC(=O)[C@@H](NC(=O)[C@@H](N)CCC(N)=O)CCCCNC(=O)[C@H](Cc2ccccc2)NC(=O)CNC1=O)
kcat (human QC [5]; Human QC): 22.8 ± 0.6 s⁻¹

H-QAAAA-NH2 [H-Gln-Ala-Ala-Ala-Ala-NH2]
kcat (human QC [5]; Human QC): 60.5 ± 0.7 s⁻¹

H-QAASAA-NH2 [H-Gln-Ala-Ala-Ser-Ala-Ala-NH2]
kcat (human QC [5]; Human QC): 55.3 ± 1.6 s⁻¹

QFRHDSGYE-NH2 [[Gln^3]Aβ3-11a]
Km (human QC [5]; [10]): 87 ± 3 µM | kcat (s^−1) (human QC [5]; [10]): 55 ± 1^# s^−1 | Km (human QC [5]; [11]): 155 ± 4 µM | kcat (human QC [5]; [11]): 41.4 ± 0.4 s⁻¹

QFRHDSGYEVHHQKLVFFA-NH2 [[Gln^3]Aβ3-21a]
kcat (human QC [5]; [11]): 62 ± 3 s⁻¹

[Gln^3]-glucagon (3-29): QC substrate
Km (human QC [5]; [11]): 19 ± 1 µM | kcat (human QC [5]; [11]): 10.0 ± 0.2 s⁻¹ | substrate conversion, determined qualitatively (human QC [6]): *

[Gln^5]-substance P (5-11): QC substrate (QQFFGLM; ends and bridges not checked)
substrate conversion, determined qualitatively (human QC [6]): *

phenylimidazole
inhibition of human QC (human QC [4]): inactive under the experimental conditions

reduced 6-methylpterin
inhibition of mammalian QC (mammalian QC): Inhibition
